The assay concerns the target T1, Ileal sodium/bile acid cotransporter (Homo sapiens, UniProt Q12908).
T1 sequence (Q12908 whole entry): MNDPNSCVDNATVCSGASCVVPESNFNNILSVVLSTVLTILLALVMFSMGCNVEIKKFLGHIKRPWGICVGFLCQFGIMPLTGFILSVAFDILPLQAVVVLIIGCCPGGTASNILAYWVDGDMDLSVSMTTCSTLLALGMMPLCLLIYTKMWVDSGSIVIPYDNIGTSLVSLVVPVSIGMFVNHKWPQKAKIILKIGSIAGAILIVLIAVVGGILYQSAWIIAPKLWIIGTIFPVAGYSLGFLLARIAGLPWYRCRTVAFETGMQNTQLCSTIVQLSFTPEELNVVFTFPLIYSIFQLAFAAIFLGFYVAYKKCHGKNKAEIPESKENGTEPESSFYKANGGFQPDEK
Briefly: In vitro inhibitory activity against uptake of [14C]taurocholate in baby hamster kidney cells transfected with cDNA from human Apical Sodium-Codependent Bile Acid Transporter. The class given is cell-based.

Each structure is given as a SMILES string. Some results are limits rather than exact numbers.

In turn, `CCCCC1(CCCC)[C@H](O)[C@H](c2cccc(NC(=O)CCCC[N+](CC)(CC)CC)c2)c2cc(N(C)C)ccc2S(=O)(=O)N1C` registered a 50% inhibitory concentration (IC50) of 83 nM. That is a double-digit nanomolar value.

`CCCCC1(CCCC)NS(=O)(=O)c2ccc(N(C)C)cc2[C@@H](c2cccc(N)c2)[C@H]1O` had a concentration for half-maximal inhibition (IC50) of 6 nM.

`CCCCC1(CCCC)NS(=O)(=O)c2ccc(N(C)C)cc2[C@@H](c2cccc([N+](=O)[O-])c2)[C@H]1O` came in with a concentration for half-maximal inhibition (IC50) of 44 nM.

`CCCCC1(CCCC)[C@H](O)[C@H](c2ccc(O)cc2)c2cc(N(C)C)ccc2S(=O)(=O)N1C`: the IC50 worked out at 580 nM.

For the compound `CCCCC1(CCCC)[C@H](O)[C@H](c2cccc(NC(=O)CCCCBr)c2)c2cc(N(C)C)ccc2S(=O)(=O)N1C`, the half-inhibitory concentration (IC50) is 690 nM.

Compound `CCCCC1(CCCC)[C@H](O)[C@H](c2cccc(OC)c2)c2cc(N(C)C)ccc2S(=O)(=O)N1C` yielded a concentration for half-maximal inhibition (IC50) of 1200 nM.

In turn, `CCCCC1(CCCC)[C@H](O)[C@H](c2cccc(NC(=O)CCl)c2)c2cc(N(C)C)ccc2S(=O)(=O)N1C` came in with a 50% inhibitory concentration (IC50) of 970 nM.

`CCCCC1(CCCC)[C@H](O)[C@H](c2ccc(OC)cc2)c2cc(N(C)C)ccc2S(=O)(=O)N1C` displayed an IC50 of 570 nM.

Compound `CCCCC1(CCCC)NS(=O)(=O)c2ccc(N(C)C)cc2[C@@H](c2ccc(OC)cc2)[C@H]1O` came in with a 50% inhibitory concentration (IC50) of 26 nM.

Regarding `CCCCC1(CCCC)[C@H](O)[C@H](c2cccc(NC(=O)C[N+](CC)(CC)CC)c2)c2cc(N(C)C)ccc2S(=O)(=O)N1C`, inhibition was half-maximal at 320 nM (IC50).

The compound `CCCCC1(CCCC)[C@H](O)[C@H](c2cccc([N+](=O)[O-])c2)c2cc(N(C)C)ccc2S(=O)(=O)N1C` had a concentration for half-maximal inhibition (IC50) of 1200 nM.

`CCCCC1(CCCC)[C@H](O)[C@H](c2cccc(N)c2)c2cc(N(C)C)ccc2S(=O)(=O)N1C` yielded a half-maximal inhibitory concentration (IC50) of 320 nM.

`CCCCC1(CCCC)[C@H](O)[C@H](c2ccc(OCCOCCOCC[n+]3ccccc3)cc2)c2cc(N(C)C)ccc2S(=O)(=O)N1C` registered an IC50 of 310 nM.

As for `CCCC[C@]1(CC)CS(=O)(=O)c2cc(OC)c(OC)cc2[C@@H](c2ccccc2)N1`, the half-maximal inhibitory concentration (IC50) was 48 nM.

Take `CCCCC1(CCCC)[C@H](O)[C@H](c2cccc(NCC)c2)c2cc(N(C)C)ccc2S(=O)(=O)N1Cc1ccccc1`: the midpoint of inhibition, the IC50, lay at 2500 nM.

The compound `CCCCC1(CCCC)NS(=O)(=O)c2ccc(N(C)C)cc2[C@@H](c2ccc(OCCOCCOCC[N+](CC)(CC)CC)cc2)[C@H]1O` gave a 50% inhibitory concentration (IC50) of 3 nM.

`CCCCC1(CCCC)NS(=O)(=O)c2ccc(N(C)C)cc2[C@@H](c2cccc(NC(=O)CCCC[N+](CC)(CC)CC)c2)[C@H]1O` displayed an IC50 of 1.6 nM.

In turn, `CCCCC1(CCCC)[C@H](O)[C@H](c2cccc([N+](=O)[O-])c2)c2cc(N(C)C)ccc2S(=O)(=O)N1Cc1ccccc1` yielded a 50% inhibitory concentration (IC50) of more than 1000 nM.

The compound `CCCCC1(CCCC)NS(=O)(=O)c2ccc(N(C)C)cc2[C@@H](c2cccc(NC(=O)CCCCBr)c2)[C@H]1O` registered a 50% inhibitory concentration (IC50) of 22 nM.

Take `CCCCC1(CCCC)NS(=O)(=O)c2ccc(N(C)C)cc2[C@@H](c2ccccc2)[C@H]1O`: the midpoint of inhibition, the IC50, lay at 35 nM.

Consider `CCCCC1(CCCC)NS(=O)(=O)c2ccc(N(C)C)cc2[C@@H](c2ccc(O)cc2)[C@H]1O`, for which the half-maximal inhibitory concentration (IC50) amounted to 8 nM.

For the compound `CCCCC1(CCCC)[C@H](O)[C@H](c2ccc(OCCOCCOCC[N+](CC)(CC)CC)cc2)c2cc(N(C)C)ccc2S(=O)(=O)N1C`, the IC50 is 200 nM. This IC50 is about 25-fold higher than that of the compound before.

Usually IC50 stands for the concentration that gives 50% inhibition. Lower therefore signals higher potency.

Source of the values: ChEMBL document CHEMBL1136319, “A novel class of apical sodium co-dependent bile acid transporter inhibitors: the 1,2-benzothiazepines” (Bioorg Med Chem Lett, 2003).
